From paper PMC5591945, “Novel Protein-Protein Inhibitor Based Approach to Control Plant Ethylene Responses: Synthetic Peptides for Ripening Control” (Frontiers in Plant Science, 2017)

B1: NOP-1 octapeptide (peptide)
peptide: LKRYKRRL
notes: Used unlabeled in MST; also called NLS-derived peptide; source: synthetic peptide (GenScript)

Columns and labels:
tomato fruits = conditions: 2007, cited from earlier work; for ripening, lycopene synthesis and chlorophyll breakdown: AVG inhibits ethylene biosynthesis, 1-MCP inhibits ethylene response, ref Saltveit, 2005, Passam et al.; for drawbacks on fruit quality and maturation: in some cases, ref Passam et al.
Excerpt: Improving shelf life and nutritional quality of tomato fruits is difficult to achieve with the methods currently in use. Maintaining adequate storage conditions is expensive and might cause chilling injury if used improperly ([[…] et al., 2007]). Even though genetic modifications reducing gene expression of proteins involved in ethylene synthesis are possible in principle ([Abano and Buah, 2015]) these procedures are banned by law throughout Europe and have low acceptance among European consumers. Chemical methods such as application of AVG to inhibit ethylene biosynthesis or treatment with ...

[1] = test system: Tomato fruits (Solanum lycopersicum L.) of the cultivar ‘Lyterno’; conditions: in vivo
Excerpt: Tomato fruits (Solanum lycopersicum L.) of the cultivar ‘Lyterno’ (Rijk Zwaan, De Lier, Netherlands) were harvested at the maturity stage “green” (USDA; 2005) from tomato plants which where cultivated in a commercial-like greenhouse at the research station Campus Klein-Altendorf (University of Bonn, Germany). At the early development stages, the trusses were manually thinned to six fruits per truss, according to the common practice aiming standardized fruit size and quality. For the experiment, the last two fruits of the fourth truss, counted from the bottom, were chosen for evaluations. At the beginning of the experiment, […] showing similar color and size were divided into four treatments (n = 25 fruits per treatment). On each fruit, a transparent polyethylene film was placed at the equatorial zone to demark the four evaluation points of 2.8 cm diameter each.
The four treatments were as follows: (1) control; (2) NOP-1, 400 μM; (3) NOP-1, 1000 μM; (4) NOP-1, 2000 μM. The NOP-1 peptide (GenScript, Piscataway, NJ, United States) was dissolved in 5 ml deionized water. On each fruit, a total of 200 microdroplets (0.5 μL each) of the peptide solution were gently deposited (50 micro droplets on each marked area of the tomato fruit) with a Hamilton microdispenser (Hamilton Bonaduz AG, Bonaduz, Switzerland). […]

[2] = target: tomato ethylene receptor LeETR4 (tomato (Solanum lycopersicum)) (UniProt Q9XET8); assay: MST; 100 nM receptor labeled with Alexa Fluor 488-Maleimide titrated with unlabeled NOP-1 (500 μM to 61.04 nM) in 50 mM Tris-HCl pH 8.0, 300 mM NaCl; Monolith NT.115, 20% MST power (LeETR4) or 60% (NR); triplicate; apparent Kd
[3] = target: T1, tomato ethylene receptor NR (NeverRipe) (tomato (Solanum lycopersicum), UniProt Q41341 1-635, labeled with Alexa Fluor 488-Maleimide); assay: as above; conditions: both partners purified
T1 construct: Tomato ethylene receptor NR (NeverRipe), full-length codon optimized cDNA in pET16b; pET16b normally adds the deca-histidine tag and a factor Xa site at the N-terminus (surmised); Kept in 0.015% FosCholine-16; source: E. coli BL21 (DE3), solubilized with FosCholine-16, purified (HisTrap FF / Ni-NTA)
T1 sequence (looked up): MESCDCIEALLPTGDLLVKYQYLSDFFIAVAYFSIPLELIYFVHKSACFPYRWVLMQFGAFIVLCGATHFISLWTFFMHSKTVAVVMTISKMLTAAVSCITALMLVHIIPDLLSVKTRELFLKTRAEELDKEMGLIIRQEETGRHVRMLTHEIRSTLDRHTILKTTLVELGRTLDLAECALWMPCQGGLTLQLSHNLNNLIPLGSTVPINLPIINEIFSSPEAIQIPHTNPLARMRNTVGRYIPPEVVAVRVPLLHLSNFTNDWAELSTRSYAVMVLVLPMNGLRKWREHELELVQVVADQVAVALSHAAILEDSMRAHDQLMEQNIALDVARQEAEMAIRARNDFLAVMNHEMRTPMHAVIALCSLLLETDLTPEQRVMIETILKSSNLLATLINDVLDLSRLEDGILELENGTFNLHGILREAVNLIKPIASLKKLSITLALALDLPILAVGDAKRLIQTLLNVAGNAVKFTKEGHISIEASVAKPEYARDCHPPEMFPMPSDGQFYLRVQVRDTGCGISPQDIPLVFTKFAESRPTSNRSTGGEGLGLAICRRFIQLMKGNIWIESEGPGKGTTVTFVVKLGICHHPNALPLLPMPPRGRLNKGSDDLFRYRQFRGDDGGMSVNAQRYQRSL

| Molecule | ripening, lycopene synthesis and chlorophyll breakdown (tomato fruits) | drawbacks on fruit quality and maturation (tomato fruits) | effect on fruit quality [1] | Kd [2] [µM] | Kd [3] [µM] |
| --- | --- | --- | --- | --- | --- |
| CC1=CC1 [1-MCP, 1-methylcyclopropene] | significantly delay ripening and slow down lycopene synthesis and chlorophyll breakdown | quality losses in taste development or to complete arrest in maturation |  |  |  |
| NCCO/C=C/[C@H](N)C(=O)O [AVG, aminoethoxyvinylglycine] | significantly delay ripening and slow down lycopene synthesis and chlorophyll breakdown | quality losses in taste development or to complete arrest in maturation |  |  |  |
| CC(C)C[C@H](NC(=O)[C@H](CCCNC(=N)N)NC(=O)[C@H](CCCNC(=N)N)NC(=O)[C@H](CCCCN)NC(=O)[C@H](Cc1ccc(O)cc1)NC(=O)[C@H](CCCNC(=N)N)NC(=O)[C@H](CCCCN)NC(=O)[C@@H](N)CC(C)C)C(=O)O [NOP-1] |  |  | no negative effects on fruit quality |  |  |
| B1 |  |  |  | 4.15 | 23.5 |
